Source: paper PMC11411213 (Journal of Molecular Cell Biology, 2024)
Read-outs that look alike come from different tables or passages of the source.

What was measured:
Type in all cases: cell-based
SARS-CoV-2 Wuhan variant [1] = system: SARS-CoV-2 Wuhan variant
[2] = system: SARS-CoV-2 Omicron variant
SARS-CoV-2 Wuhan variant [3] = assay: microbe, parasite or virus in culture
SARS-CoV-2 Alpha variant = assay: microbe, parasite or virus in culture
SARS-CoV-2 Delta variant = assay: microbe, parasite or virus in culture
SARS-CoV-2 D614G variant = system: SARS-CoV-2 D614G variant
[4] = Severe acute respiratory syndrome coronavirus 2, Calu-3

Compound | antiviral activity after a single replication cycle (viral titre, in words) (SARS-CoV-2 Wuhan variant [1]) | antiviral activity after a single replication cycle (viral titre, in words) [2] | IC50 (SARS-CoV-2 Wuhan variant [3]; read-out: IC50) | SI (selectivity index) (SARS-CoV-2 Alpha variant) | IC50 (SARS-CoV-2 Alpha variant; [4]) | SI (selectivity index) (SARS-CoV-2 Delta variant) | IC50 (SARS-CoV-2 Delta variant; [4]) | IC50 (SARS-CoV-2 D614G variant) | SI (selectivity index) (SARS-CoV-2 Wuhan variant [3]) | IC50 (SARS-CoV-2 Wuhan variant [3]; [4]) | IC50 (SARS-CoV-2 Alpha variant; read-out: IC50) | IC50 (SARS-CoV-2 Delta variant; read-out: IC50)
N-acetyl cysteine [NAC] | strong antiviral activity | effective against the Omicron variant | 549000 nM |  |  |  |  |  |  |  |  | 
N[C@@H](CCC(=O)N[C@@H](CS)C(=O)NCC(=O)O)C(=O)O [GSH, glutathione] | strong antiviral activity | effective against the Omicron variant |  |  |  |  |  |  |  |  |  | 
COc1cc2c(Nc3ccc(Br)cc3F)ncnc2cc1OCC1CCN(C)CC1 [Vandetanib] |  |  |  | 123.55 | 30.4 ± 1.54 nM | 72.91 | 51.5 ± 5.55 nM | 33.4 ± 2.72 nM | 96.46 | 38.9 ± 2.4 nM |  | 
MKI-1 |  |  | 46.5 ± 1.8 nM |  |  |  |  | 46.4 ± 0.82 nM |  |  | 31.7 ± 4.18 nM | 48.4 ± 2.07 nM
O=C(O)c1cc(/N=N/c2ccc(S(=O)(=O)Nc3ccccn3)cc2)ccc1O [Sulfasalazine] |  |  |  | > 23.87 | 20900 ± 4230 nM | > 20.82 | 24000 ± 3200 nM | 20000 ± 2070 nM | > 20.51 | 24400 ± 5370 nM |  | 
imidazole ketone erastin [IKE] | strong antiviral activity | effective against the Omicron variant | 99 ± 8.12 nM |  |  |  |  | 88.5 ± 105 nM |  |  | 79.9 ± 4.11 nM | 113 ± 3.71 nM
COc1cc(Nc2ncc(F)c(Nc3ccc4c(n3)NC(=O)C(C)(C)O4)n2)cc(OC)c1OC [Tamatinib] |  |  |  | 69.20 | 82.95 ± 0.68 nM | 57.84 | 99.2 ± 1.4 nM | 115 ± 6.77 nM |  | 103 ± 2.7 nM |  | 
